The text below walks through data of patent US20240124464A1, “SUBSTITUTED FUSED BICYCLIC COMPOUND AS KINASE INHIBITOR AND USE THEREOF” (IMPACT THERAPEUTICS (SHANGHAI), INC, priority 2020, published 2024).

One assay concerns the target T1, NUAK2(h) enzyme (Homo sapiens, UniProt Q9H093).
T1 construct: purchased Eurofins Discovery
T1 sequence (Q9H093 1-628): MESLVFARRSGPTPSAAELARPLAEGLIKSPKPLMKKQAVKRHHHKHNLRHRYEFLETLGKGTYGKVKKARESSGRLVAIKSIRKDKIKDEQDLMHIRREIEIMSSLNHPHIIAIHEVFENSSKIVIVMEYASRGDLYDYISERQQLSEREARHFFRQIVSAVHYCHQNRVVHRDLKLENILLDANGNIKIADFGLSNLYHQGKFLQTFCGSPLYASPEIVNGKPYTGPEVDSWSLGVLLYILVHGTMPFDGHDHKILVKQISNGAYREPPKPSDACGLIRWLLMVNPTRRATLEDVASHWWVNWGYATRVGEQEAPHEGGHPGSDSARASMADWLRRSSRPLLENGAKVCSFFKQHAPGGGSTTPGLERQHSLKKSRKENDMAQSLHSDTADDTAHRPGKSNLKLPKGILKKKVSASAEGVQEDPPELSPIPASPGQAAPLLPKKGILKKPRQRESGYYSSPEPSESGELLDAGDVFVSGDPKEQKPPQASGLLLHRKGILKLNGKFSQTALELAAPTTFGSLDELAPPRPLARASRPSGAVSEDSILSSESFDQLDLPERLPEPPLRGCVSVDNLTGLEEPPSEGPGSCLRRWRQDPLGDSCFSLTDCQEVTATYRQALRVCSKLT
The assay can be described thus: In vitro NUAK2 enzymatic assay (Eurofins Discovery, [γ-33P]-ATP filter assay). Format: biochemical. The settings on record: 45 μM ATP, 40 min, room temperature; read-out: IC50, inhibitory effect on NUAK2 enzyme activity. On the procedure:
In Vitro Assay to Determine the Inhibitory Effect of Compounds in the Patent on NUAK2 Enzymatic Activity
The in vitro NUAK2 enzymatic assay was carried out at Eurofins Discovery to evaluate the inhibitory effect of the compounds presented in the invention. The assay protocol is as follow: the compound to be tested was mixed with NUAK2(h) enzyme and 300 […] substrate in 8 mM MOPS (pH 7.0) buffer containing 0.2 mM EDTA. A Mg/ATP mixture containing 10 mM magnesium acetate and 45 μM [γ-33P]-ATP was added to start the reaction. After incubation for 40 min at room temperature, the reaction was terminated by adding 0.5% phosphoric acid. Then 10 μL of the reaction mix was spotted onto a P30 filter paper. The filter paper was washed four times with 0.425% phosphoric acid with 4 min for each wash, and one time with methanol. The filter paper was air-dried and counted in a liquid scintillation counter. The values obtained were plotted against the drug concentration and the IC50 was calculated.
Table 1 summarizes the inhibitory effect (IC50) of compounds on the NUAK2 enzyme activity in the present invention. ++++ indicates IC50≤10 nM; +++ indicates 10 nM<IC50≤100 nM; ++ indicates 100 nM<IC50≤1 μM; + indicates IC50>1 μM.

In a further assay the target is T2, NUAK1(h) enzyme (Homo sapiens, UniProt O60285).
T2 construct: purchased Eurofins Discovery
T2 sequence (O60285 1-661): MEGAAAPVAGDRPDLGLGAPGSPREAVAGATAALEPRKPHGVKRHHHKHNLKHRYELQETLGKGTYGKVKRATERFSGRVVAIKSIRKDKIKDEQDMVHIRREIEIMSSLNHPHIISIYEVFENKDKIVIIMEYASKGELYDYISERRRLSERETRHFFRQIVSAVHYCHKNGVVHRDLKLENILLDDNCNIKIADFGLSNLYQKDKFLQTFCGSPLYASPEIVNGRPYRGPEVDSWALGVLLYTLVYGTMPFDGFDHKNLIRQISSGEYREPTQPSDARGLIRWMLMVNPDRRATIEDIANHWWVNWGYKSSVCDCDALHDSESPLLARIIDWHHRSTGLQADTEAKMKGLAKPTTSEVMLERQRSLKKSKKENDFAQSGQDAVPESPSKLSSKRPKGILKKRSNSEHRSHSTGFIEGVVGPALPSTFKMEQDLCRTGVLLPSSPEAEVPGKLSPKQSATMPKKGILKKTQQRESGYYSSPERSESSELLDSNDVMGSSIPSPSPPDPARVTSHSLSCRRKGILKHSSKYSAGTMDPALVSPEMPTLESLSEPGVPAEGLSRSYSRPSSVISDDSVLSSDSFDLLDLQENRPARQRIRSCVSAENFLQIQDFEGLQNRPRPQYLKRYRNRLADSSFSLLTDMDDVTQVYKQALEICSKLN
The assay can be described thus: In vitro NUAK1 enzymatic assay (Eurofins Discovery, [γ-33P]-ATP filter assay). The note with it: 45 μM ATP, 40 min, room temperature; read-out: IC50, inhibitory effect on NUAK1 enzyme activity. In kind it is biochemical. How it is done: In Vitro Assay to Determine the Inhibitory Effect of Compounds in the Patent on NUAK1 Enzymatic Activity
The in vitro NUAK1 enzymatic assay was carried out at Eurofins Discovery to evaluate the inhibitory effect of the compounds presented in the invention. The assay protocol is as follow: the compound to be tested was mixed with NUAK1(h) enzyme and 300 μM […] substrate in 8 mM MOPS (pH 7.0) buffer containing 0.2 mM EDTA and incubated at room temperature. A Mg/ATP mixture containing 10 mM magnesium acetate and 45 μM [y-33P]-ATP was added to start the reaction. After incubation for 40 min at room temperature, the reaction was terminated by adding 0.5% phosphoric acid. Then, 10 μL of the reaction mix was spotted onto a P30 filter paper followed with four times of wash with 0.425% phosphoric acid solution (4 min each time), and one time wash with methanol. The filter paper was air-dried and counted in a liquid scintillation counter. The values obtained were plotted against the drug concentration and the IC50 was calculated.
Table 1 summarizes the inhibitory effect (IC50) of compounds tested on the NUAK1 enzyme activity in the present invention. ++++ indicates IC50≤10 nM; […]; ++ indicates 100 nM<IC50≤1 μM; + indicates IC50>1 μM.

Molecules are shown by their SMILES.

For the molecule `COc1cc(N2CCN(C)CC2)ccc1Nc1ncc2c(n1)N(C1CC1)C(=O)NC2` [Example 3], the figures for the IC50 at NUAK2(h) enzyme and at NUAK1(h) enzyme were over 1000 nM and 100 to 1000 nM, respectively.

Turning to `COc1cc(N2CCN(C)CC2)ccc1Nc1ncc2c(n1)N(C1CCCC1)C(=O)N(C)C2` [Example 4, 1-cyclopentyl-7-((2-methoxy-4-(4-methylpiperazin-1-yl)phenyl)amino)-3-methyl-3,4-dihydropyrimido[4,5-d]pyrimidin-2(1H)-one], the IC50 at NUAK2(h) enzyme and at NUAK1(h) enzyme was 100 to 1000 nM in each case.

As for `CCOc1cc(N2CCN(C)CC2)ccc1Nc1ncc2cnc(=O)n(C3CCCC3)c2n1` [Example 7, 1-cyclopentyl-7-((2-ethoxy-4-(4-methylpiperazin-1-yl)phenyl)amino)pyrimido[4,5-d]pyrimidin-2(1H)-one], the figures for the IC50 at NUAK2(h) enzyme and on NUAK1(h) enzyme were 100 to 1000 nM and over 1000 nM, respectively.

For `CC(C)Oc1cc(N2CCN(C)CC2)ccc1Nc1ncc2cnc(=O)n(C3CCCC3)c2n1` [Example 8, 1-cyclopentyl-7-((2-isopropoxy-4-(4-methylpiperazin-1-yl)phenyl)amino)pyrimido[4,5-d]pyrimidin-2(1H)-one], the IC50 at NUAK2(h) enzyme and on NUAK1(h) enzyme was over 1000 nM throughout.

`CN1CCN(c2ccc(Nc3ncc4cnc(=O)n(C5CCCC5)c4n3)c(OC(F)(F)F)c2)CC1` [Example 9, 1-cyclopentyl-7-((4-(4-methylpiperazin-1-yl)-2-(trifluoromethoxy)phenyl)amino)pyrimido[4,5-d]pyrimidin-2(1H)-one]: the IC50 on NUAK2(h) enzyme and at NUAK1(h) enzyme was over 1000 nM each time.

`CN1CCN(c2ccc(Nc3ncc4cnc(=O)n(C5CCCC5)c4n3)c(Cl)c2)CC1` [Example 11, 7-((2-chloro-4-(4-methylpiperazin-1-yl)phenyl)amino)-1-cyclopentylpyrimido[4,5-d]pyrimidin-2(1H)-one]: the IC50 on NUAK2(h) enzyme and at NUAK1(h) enzyme was 100 to 1000 nM each time.

As for `CN1CCN(c2ccc(Nc3ncc4cnc(=O)n(C5CCCC5)c4n3)c(Br)c2)CC1` [Example 12, 7-((2-bromo-4-(4-methylpiperazin-1-yl)phenyl)amino)-1-cyclopentylpyrimido[4,5-d]pyrimidin-2(1H)-one], the half-maximal inhibitory concentration (IC50) at NUAK2(h) enzyme and on NUAK1(h) enzyme was 100 to 1000 nM in each case.

Regarding `COc1cc(N2CCN(C)CC2)ccc1Nc1nc(C)c2cnc(=O)n(C3CCCC3)c2n1` [Example 13, 1-cyclopentyl-7-((2-methoxy-4-(4-methylpiperazin-1-yl)phenyl)amino)-5-methylpyrimido[4,5-d]pyrimidin-2(1H)-one], the IC50 at NUAK2(h) enzyme and at NUAK1(h) enzyme was over 1000 nM throughout.

As to `COc1cc(N2CCN(C)CC2)ccc1Nc1ncc2cnc(=O)n(C3CCC3)c2n1` [Example 14, 1-cyclobutyl-7-((2-methoxy-4-(4-methylpiperazin-1-yl)phenyl)amino)pyrimido[4,5-d]pyrimidin-2(1H)-one], the IC50 at NUAK2(h) enzyme and on NUAK1(h) enzyme was 100 to 1000 nM each time.

Take `COc1cc(N2CCN(C)CC2)ccc1Nc1ncc2cnc(=O)n(C3CC3)c2n1` [Example 15, 1-cyclopropyl-7-((2-methoxy-4-(4-methylpiperazin-1-yl)phenyl)amino)pyrimido[4,5-d]pyrimidin-2(1H)-one]: the values for the IC50 at NUAK2(h) enzyme and on NUAK1(h) enzyme were over 1000 nM and 100 to 1000 nM, respectively.

`COc1cc(N2CCN(C)CC2)ccc1Nc1ncc2cnc(=O)n(C3CCOCC3)c2n1` [Example 16, 7-((2-methoxy-4-(4-methylpiperazin-1-yl)phenyl)amino)-1-(tetrahydro-2H-pyran-4-yl)pyrimido[4,5-d]pyrimidin-2(1H)-one]: the IC50 on NUAK2(h) enzyme is 100 to 1000 nM; at NUAK1(h) enzyme it was over 1000 nM.

As for `COc1cc(N2CCN(C)CC2)ccc1Nc1cc2c(cn1)cc(C#N)c(=O)n2C1CCCC1` [Example 25, 1-cyclopentyl-7-((2-methoxy-4-(4-methylpiperazin-1-yl)phenyl)amino)-2-oxo-1,2-dihydro-1,6-naphthyridine-3-carbonitrile], the IC50 was 100 to 1000 nM on NUAK2(h) enzyme and over 1000 nM at NUAK1(h) enzyme.

For the molecule `COc1cc(N2CCN(C)CC2)ccc1Nc1ncc2c(n1)N(C1CC1)C(=O)CC2` [Example 30], the IC50 on NUAK2(h) enzyme was over 1000 nM; at NUAK1(h) enzyme, 100 to 1000 nM.

Regarding `COc1cc(N2CCN(C)CC2)ccc1Nc1ncc2c(n1)N(C1CCCC1)C(=O)CO2` [Example 31, 8-cyclopentyl-2-((2-methoxy-4-(4-methylpiperazin-1-yl)phenyl)amino)-6H-pyrimido[5,4-b][1,4]oxazin-7(8H)-one], the IC50 on NUAK2(h) enzyme and on NUAK1(h) enzyme was 100 to 1000 nM throughout.

Turning to `COc1cc(N2CCN(C)CC2)ccc1Nc1ncc2c(n1)N(C1CCOCC1)C(=O)NC2` [Example 33, 7-((2-methoxy-4-(4-methylpiperazin-1-yl)phenyl)amino)-1-(tetrahydro-2H-pyran-4-yl)-3,4-dihydropyrimido[4,5-d]pyrimidin-2(1H)-one], the IC50 on NUAK2(h) enzyme and on NUAK1(h) enzyme was 100 to 1000 nM throughout.

Regarding `COc1cc(N2CCN(C)CC2)ccc1Nc1ncc2cncc(C3CCCC3)c2n1` [Example 34, 8-cyclopentyl-N-(2-methoxy-4-(4-methylpiperazin-1-yl)phenyl)pyrido[4,3-d]pyrimidin-2-amine], the IC50 on NUAK2(h) enzyme and at NUAK1(h) enzyme was 10 to 100 nM throughout.

Take `COc1cc(N2CCN(C)CC2)ccc1Nc1ncc2cncc(C3=CCCC3)c2n1` [Example 35, 8-(cyclopent-1-en-1-yl)-N-(2-methoxy-4-(4-methylpiperazin-1-yl)phenyl)pyrido[4,3-d]pyrimidin-2-amine]: the IC50 on NUAK2(h) enzyme and on NUAK1(h) enzyme was 10 to 100 nM in each case.

On to `COc1cc(N2CCN(C)CC2)ccc1Nc1ncc2c(C)c(C(C)=O)c(=O)n(C3CCCC3)c2n1` [Example 36, 6-acetyl-8-cyclopentyl-2-((2-methoxy-4-(4-methylpiperazin-1-yl)phenyl)amino)-5-methylpyrido[2,3-d]pyrimidin-7(8H)-one], for which the IC50 was 100 to 1000 nM at NUAK2(h) enzyme and over 1000 nM at NUAK1(h) enzyme.

For `COc1cc(N2CCNCC2)ccc1Nc1ncc2c(C)c(C(C)=O)c(=O)n(C3CCCC3)c2n1` [Example 37, 6-acetyl-8-cyclopentyl-2-((2-methoxy-4-(piperazin-1-yl)phenyl)amino)-5-methylpyrido[2,3-d]pyrimidin-7(8H)-one], the IC50 was 100 to 1000 nM on NUAK2(h) enzyme and over 1000 nM on NUAK1(h) enzyme.

`CCC(=O)Nc1cccc(Oc2nc(Nc3ccc(N4CCN(C)CC4)cc3OC)ncc2I)c1` [HTH-02-006, reference compound]: the IC50 on NUAK2(h) enzyme was in the range of 100 to 1000 nM; at NUAK1(h) enzyme it was 10 to 100 nM.
